Where two headings read alike, the source gives them in different places.

In one series the test system is RPE-1 cells. The series is described as follows: GI50 determination, SRB assay. Type of series: cell-based, human. Conditions: 96 hours; read-out: Mean GI50 (μM) RPE-1 SRB Assays. On the procedure:
(§1) GI50 determination assays
(§2) Cell culture: The RPE-1 retinal pigment epithelial, A2780 human ovarian carcinoma, and A2780 CisR cisplatin resistant human ovarian carcinoma cell lines were donated with thanks from the Institute of Cancer Research. The A2780 and A2780 CisR cell lines were cultured in IMDM supplemented with 10 % FBS at 37 °C and 5 % CO2, while the RPE-1 cell line was cultured in a 1:1 mixture of Dulbecco's Modified Eagle Medium and Ham’s F-12 Nutrient Mixture (DMEM/F-12) at 37 °C and 5 % CO2.
(§3) SRB assay: Cells were seeded into 96-well plates at 800 cells per well/cpw (A2780), 1600 cpw (A2780 CisR) or 400 cpw (RPE-1) in cell culture medium and cultured for 48 hours followed by addition of each compound over an eight-point concentration range (each concentration in triplicate). Plates were then cultured for a further 96 hours, after which the cell culture […]
(§4) medium was removed from each well and the cells fixed with addition of 70 µL/well of 10 % (w/v) trichloroacetic acid (TCA) in distilled water followed by incubation for 30 minutes at RT.
(§5) Each plate was then washed with distilled water five times before addition of 70 µL SRB dye (0.4 % (w/v) SRB dye (ThermoFisher Scientific, USA) solubilised in 1 % (v/v) acetic acid/ dH2O) and incubat ed for 30 minutes at RT, followed by washing three times with 1 % (v/v) acetic acid and drying in a 37 °C oven overnight. Once dry, 100 μl of 10 mM Tris -base (ThermoFisher Scientific, USA) was added to each well and plates put on a microplate shaker for 10 minutes at 200 rpm to solubilize the dye. Absorbance values were then read at wavelength 490 nm on a Victor X4 multi-label plate reader (PerkinElmer Life Sciences, USA), data analysed using Microsoft Excel and graphs produced using GraphPad Prism 9.0 and the GI50 value calculated.
(§6) Solutions and compo und preparation: All solvents and starting materials were purchased from known chemical suppliers. Compound stock solutions were prepared in DMSO. Buffer […]
(§7) 500 mM. Buffer B consisted of Na2SO4 (167 mM) and NaOAc (5 mM) with a pH of 5.5 and an ionic strength of 500 mM.
(§8) Vesicle formation: Giant unilamellar Vesicles (GUVS) were prepared through the electro formation method using a Nanion VesiclePrepPro. A solution of 1,2-diphytanoyl-sn-glycero-3-phosphocholine (DPhPC) (10 mM) with 10 % cholesterol in chloroform (20 µL) was deposited onto an ITO coated glass surface (surface coated glass slide) and allowed to evaporate to create a dehydrated thin lipid film. A greased O-ring was then placed around the dehydrated lipid film to create a seal. This volume was then filled with a sucrose solution (275 µL, 200 mM) and then sealed with a second ITO coated glass slide. An AC current (3 V/5 Hz) was then applied. After 2 hrs, the voltage and frequency were reduced in steps over 30 mins to 1.6 V/1 Hz and held for 1 hr before being reduced to 0 V/0 Hz over a further 30 min […]
(§9) Patch clamp measurements: Experiments were performed using a Port-a-Patch system (Nanion Technologies) with borosilicate glass chips that contain an aperture diameter of approximately 1 µm. Buffer A (5 µL) was placed on the underside of the chip over the aperture, The chip was then placed into the port-a-patch system. Buffer A (15 µL) was then added to the top of the chip and 5 µL of the GUV stock solution added. The GUVS were the positioned over the aperture in the chip by application of negative pressure (-30 mbar).
(§10) When a GUV is positioned over the aperture in the chip, it bursts, leaving a planar bilayer as a seal. The negative pressure is then removed, leaving the planar bilayer in place over the aperture. The external buffer A was the exchanged with buffer B, through four simultaneous […]
(§11) buffer exchanges (4 x 15 µL). […]
(§12) = 30 s, to give a final experimental concentration of 0.1 – 1 mM as appropriate. The number of sweeps was set to 1000, the sweep interval to 0.00 s, sample interval to 1.00 ms and the protocol was run for a total of 5 mins. Each experiment was repeated a minimum of three time to ensure reproducibility.

Series [1] relates to A2780 CisR cisplatin resistant ovarian cancer cells. Put plainly: GI50 determination, SRB assay. Type of series: cell-based, human. Conditions: 96 hours; read-out: Mean GI50 (μM) A2780 CisR SRB Assays. On the procedure:
as §1, §2, §3, §4, §5, §6, §7, §8, §9, §10, §11, §12

Series [2] has as its system A2780 ovarian cancer cells. Put plainly: GI50 determination, SRB assay. Type of series: cell-based, human. As to conditions: 96 hours; read-out: Mean GI50 (μM) A2780 SRB Assays. As to the method:
as §1, §2, §3, §4, §5, §6, §7, §8, §9, §10, §11, §12

Series [3] is described as follows: Bi-directional permeability in Caco-2 cell line. Type of series: in vitro ADME. Conditions: human; for Papp B→A at 2 h, 5 µM: Caco-2, pH 7.4, 5 µM, basolateral to apical; for recovery at 2 h, 5 µM: Caco-2, pH 7.4, after 2 hours; for Papp A→B at 2 h, 5 µM: apical to basolateral. An excerpt: Next, to gauge the suitability of SSAs for oral dosing, 9 was subjected to a Caco-2 permeability assay which is used to both predict human intestinal permeability and investigate drug efflux, predicting in vivo compound absorption. This assay allows assessment of a compound's ability to undergo transport from the apical to the basolateral (A–B) compartments of the cell monolayer and vice versa (B–A). […] This is likely to result in poor absorption when dosed orally and therefore further development would be necessary for these agents to become suitable for oral administration. […]
The ionspray voltage was 5500V.
Bi-directional Permeability in Caco-2 Cell Line:
The bi-directional permeability in Caco-2 cell lines was determined by seeding cells onto an HTS Transwell plate. Cells were cultivated for 14-18 days in a cell culture incubator at 37°C, 5% CO2, 95% relative humidity. Cell culture medium was replaced every other day. To assess monolayer integrity the transepithelial electrical resistance (TEER) across the monolayer was measured using Millicell Epithelial volt-ohm meter prior to assay and Lucifer yellow (LY) fluorescence measurement post-assay.
Test compound was prepared in DMSO and diluted in Hank’s Balanced Saline Solution (HBSS, pH 7.4) to a final concentration of 5 µM. Compound was added to the donor compartment of the transwell plate for both apical to basolateral (A>B) and basolateral to apical (B>A) measurements, with blank HBSS being added to the receiver compartment. The transwell plate was then incubated at 37°C, 5% CO2 for 2 hours.
Samples were taken at T=0 and T=2 hours determine the concentration of initial donor sample, and the concentration of receiver and donor wells post-incubation, respectively.
The samples were quenched with solvent containing internal standard (IS). The supernatant was mixed with an appropriate volume of ultra-pure water before LC-MS/MS analysis.
Samples were analysed using a Shimadzu Nexera LC Binary Gradient LC-30AD (Shimadzu Inc, Kyoto), coupled to a Sciex 6500+ (AB Inc., Illinois). Separation of compounds was achieved using a HALO 90Å biphenyl (2.7µm,2.1x50mm) (Advanced Materials Technology, Wilmington) column at a temperature of 40°C. A binary mobile phase gradient at a flow rate of 0.7 mL/min was used. Initial LC conditions comprised of 95% solvent A (0.1% formic acid in water) and 5% solvent B (0.1% formic acid in acetonitrile). This was ramped to 95% solvent B at 0.7 minutes, held for 0.5 minutes and then immediately returned to initial conditions. Sample analysis was by electrospray ionisation combined with multiple reaction monitoring in positive ion mode. The ion spray voltage was 5500V.
In vitro Absorption, Distribution and Metabolism results
Table S1 – Result from solubility assays performed in PBS pH 7.4 for SSA 9.
Table S2 – Summary of results from Caco-2 permeability assays for SSA 9. Papp is given as […]
cm/s. A = apical; B = basolateral. Recovery = % SSA recovered from the assay after 2 hours.
ID Papp (A-B) % Recovery Papp (B-A) % Recovery Efflux Ratio
Table S3 – Summary of results from human plasma protein binding assays for SSA 9. % Bound = % of SSA bound to the plasma proteins after 6 hours incubation at 37 °C. Low % […]
= > 99 %. % Recovery = % SSA recovered from the assay after 6 hours.
ID % Bound % Recovery % Stability
Table S4 – Summary of results from mouse, rat and human microsomal stability assays for SSA 9. The in vitro half-life (t1/2) and microsomal intrinsic clearance (CLint) were calculated from the elimination rate (k, the slope of the natural log of concentration verses time curve), assuming first order kinetics, using the formulae t1/2 = 0.693/-k and CLint = 0.693/t1/2 […]. This compound would be classed as a low clearance compound in all three species. […]

Series [4] can be described thus: Plasma protein binding, equilibrium dialysis. Type of series: in vitro ADME, human. Conditions: pH 7.4; human plasma, after 6 hours. As to the method:
This allows an assessment of the free drug concentration available to distribute into the tissues and interact with the target. The extent to which a compound binds to the constituents of blood plasma can influence drug distribution. […] page 10: In vitro Absorption, Distribution and Metabolism studies General note: These studies were performed by Contract Research Organisation (CRO) Pharmaron. The methodology provided within the ESI is published within the express permission of this organisation. The percentage of a compound recovered during the […] limitations such as unintended potential non-specific binding events to experimental equipment, solubility issues, etc. Protein Binding measurements in human plasma by using equilibrium dialysis: The fraction unbound in human plasma (P-KB, Ltd People's hospital of Shandong) was measured using 96-well Equilibrium Dialysis Plate (HTDialysis LLC, Gales Ferry, CT). Human plasma containing 5 μM test compound was dialysed against dialysis buffer (PBS, pH 7.4) with initial samples taken to allow for assessment of plasma stability and recovery before the plate was incubated for 6 hours at 37°C at 5% CO2. Samples were removed at 6 hours, and all samples were matrix matched and quenched with acetonitrile containing internal standard. Samples were centrifuged at 3,220g for 30 minutes to precipitate protein and enable sampling of supernatant prior to appropriate dilution for liquid chromatography mass-spectrometry (LC-MS/MS) analysis. Samples were analysed using a Shimadzu Nexera LC Binary Gradient LC-30AD (Shimadzu Inc, Kyoto), coupled to a Sciex 6500+ (AB Inc., Illinois). Separation was achieved using a XSelect HSS T3 (2.5μm, 2.1 x 50 mm) (Waters Ltd., Wilmslow) column at a temperature of 40°C and a binary mobile phase gradient at a flow rate of 0.8 mL/min. Initial LC conditions comprised of […] was ramped to 98% B at 0.5 min, held for 0.4 min and then immediately returned to initial conditions. Sample analysis was by electrospray ionisation in combined with multiple reaction monitoring in positive ionisation mode. The ionisation voltage was +5500 V. Kinetic Solubility Determination in PBS pH 7.4: The stock solutions of test and control compounds were prepared in DMSO at 10 mM. From […] These solutions were then shaken at 1100 rpm for 2 hours at 25°C. Following incubation, the samples were filtered using a vacuum manifold. The filtrate was analysed and quantified against a standard of known concentration using liquid chromatography mass- spectrometry (LC-MS/MS). Samples were analysed using a Shimadzu Nexera LC Binary Gradient LC-30AD (Shimadzu Inc, Kyoto), coupled to a Sciex 4500 mass spectrometer (AB Inc., Illinois). Separation of […] Wilmslow) at a temperature of 40°C and a binary mobile phase gradient at a flow rate of 0.8 mL/min. […] This was ramped to 98% solvent B at 0.5 minutes, held for 0.4 minutes and then immediately returned to initial conditions. Sample analysis was by electrospray ionisation combined with multiple reaction monitoring in positive ion mode. The ionspray voltage was […]. 10

In the case of `N.N.[Cl][Pt][Cl]` [Cisplatin, cisplatin, reference compound], the GI50 in the series with RPE-1 cells is 6.25 µM; in series [1], 10.8 µM; in series [2], 1.09 µM.
As for `C[C@H]1O[C@@H](O[C@H]2[C@@H](O)C[C@H](O[C@H]3[C@@H](O)C[C@H](O[C@H]4CC[C@@]5(C)[C@H](CC[C@@H]6[C@@H]5C[C@@H](O)[C@]5(C)[C@@H](C7=CC(=O)OC7)CC[C@]65O)C4)O[C@@H]3C)O[C@@H]2C)C[C@H](O)[C@@H]1O` [Digoxin], in series [3] (Caco-2, pH 7.4), the efflux ratio at 2 h, 5 µM is 45.6 and the Papp A→B at 2 h, 5 µM came out at 0.42 ×10⁻⁶ cm/s. The compound further showed a Papp B→A at 2 h, 5 µM in series [3] of 18.7 ×10⁻⁶ cm/s. For the same compound, the recovery at 2 h, 5 µM in series [3] (read-out: Recovery (%) AP-BL) worked out at 95.9%. The recovery at 2 h, 5 µM in series [3] (read-out: Recovery (%) BL-AP) came to 99.2%.
With `CC(=O)N1CCN(c2ccc(OCC3COC(Cn4ccnc4)(c4ccc(Cl)cc4Cl)O3)cc2)CC1` (centres unmarked) [Ketoconazole, reference compound], the recovery at 6 h, 5 µM in series [4] came to 96.6%.
The compound `COCCc1ccc(OCC(O)CNC(C)C)cc1` (centres unmarked) [Metoprolol] registered a Papp B→A at 2 h, 5 µM in series [3] of 26.4 ×10⁻⁶ cm/s. The efflux ratio at 2 h, 5 µM in series [3] (Caco-2, pH 7.4, Caco-2) was 0.93. Also, the recovery at 2 h, 5 µM came out at 108% in series [3] (read-out: Recovery (%) AP-BL) and 99% in series [3] (read-out: Recovery (%) BL-AP). This compound registered a Papp A→B at 2 h, 5 µM in series [3] (Caco-2, pH 7.4) of 28.4 ×10⁻⁶ cm/s.
Take `CCCC[N+](CCCC)(CCCC)CCCC` [TBACl, reference compound]: the values for the GI50 (with RPE-1 cells; in series [1]; in series [2]) were 532 µM, 219 µM and 114 µM, respectively.

The record behind these values is paper PMC12973313 (Chemical Science, 2026).
